Data as given in ChEMBL document CHEMBL1201862, “PubChem BioAssay data set” (2004).
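Cultured in 96-well plates, cells were exposed to test compound for 48 hours across five concentrations. GI50 marks 50% less growth.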 Activity calls are given as the source filed them. No stated cut-off is given here; in the data, active = GI50 up to about 1.1 µM and inactive = higher.

Tests used:
Assay in all cases: NCI anticancer screen, dose series, 48 h
UACC-257 = system: UACC-257
M14 = system: M14
SK-OV-3 = system: SK-OV-3
Hs-578T = system: Hs-578T
MCF7 = system: MCF7
CCRF-CEM = system: CCRF-CEM
SF-539 = system: SF-539
SN12C = system: SN12C
T47D = system: T47D
NCI-H23 = system: NCI-H23
IGROV-1 = system: IGROV-1
RPMI-8226 = system: RPMI-8226
MDA-MB-231 = system: MDA-MB-231
UO-31 = system: UO-31
SNB-19 = system: SNB-19
NCI-H522 = system: NCI-H522
UACC-62 = system: UACC-62
KM12 = system: KM12
RXF 393 = system: RXF 393
SW-620 = system: SW-620

Compound | GI50 (UACC-257) | GI50 (M14) | GI50 (SK-OV-3) | GI50 (Hs-578T) | GI50 (MCF7) | GI50 (CCRF-CEM) | GI50 (SF-539) | GI50 (SN12C) | GI50 (T47D) | GI50 (NCI-H23) | GI50 (IGROV-1) | GI50 (RPMI-8226) | GI50 (MDA-MB-231) | GI50 (UO-31) | GI50 (SNB-19) | GI50 (NCI-H522) | GI50 (UACC-62) | GI50 (KM12) | GI50 (RXF 393) | GI50 (SW-620)
CCOC(=O)c1c2c(n(-c3ccc(OC)cc3)c1C)C(=O)C(=O)c1ccccc1-2 | 0.491 µM (active) | 1.59 µM (inactive) | 2.38 µM (inactive) | 2.18 µM (inactive) | 0.693 µM (active) | 1.27 µM (inactive) | 0.711 µM (active) | 1.58 µM (inactive) | 1.01 µM (active) | 0.873 µM (active) | 2.52 µM (inactive) | 0.647 µM (active) | 1.29 µM (inactive) | 2.12 µM (inactive) | 1.36 µM (inactive) | 2.71 µM (inactive) | 1.6 µM (inactive) | 1.82 µM (inactive) | 1.84 µM (inactive) | 1.24 µM (inactive)
COC(=O)C1=C(C)NC2=C(C(=O)c3ccccc32)C1c1c[nH]nc1-c1ccccc1 (stereo not given) | 70.5 µM (inactive) | > 100 µM (inactive) | > 100 µM (inactive) | 21.5 µM (inactive) | 44.7 µM (inactive) | 40.3 µM (inactive) | 29.9 µM (inactive) | 72.9 µM (inactive) | 90.6 µM (inactive) | > 100 µM (inactive) | 20.2 µM (inactive) | 49 µM (inactive) | 30.1 µM (inactive) | > 100 µM (inactive) | 41.5 µM (inactive) | 19.7 µM (inactive) | 35.6 µM (inactive) | 86.7 µM (inactive) | 43.4 µM (inactive) | 59.3 µM (inactive)
Nc1ncnc2c1ccn2C1OC2COP(=O)(O)OC2C1O (stereo not given) | 1.26 µM (inactive) | 0.069 µM (active) | 0.197 µM (active) | 0.502 µM (active) | 0.444 µM (active) | 0.773 µM (active) | 3.51 µM (inactive) | 0.207 µM (active) | 0.989 µM (active) | 0.885 µM (active) | 0.488 µM (active) | 0.124 µM (active) | 0.33 µM (active) | 0.196 µM (active) | 1.61 µM (inactive) | 0.14 µM (active) | 0.0914 µM (active) | 0.363 µM (active) | 0.212 µM (active) | 0.261 µM (active)
Cc1cccc2c1CC(Cc1ccccc1C(=O)O)C2=O (stereo not given) | > 100 µM (inactive) | > 100 µM (inactive) | > 100 µM (inactive) | > 100 µM (inactive) | > 100 µM (inactive) | > 100 µM (inactive) | > 100 µM (inactive) | > 100 µM (inactive) | > 100 µM (inactive) | > 100 µM (inactive) | > 100 µM (inactive) | > 100 µM (inactive) | > 100 µM (inactive) | > 100 µM (inactive) | > 100 µM (inactive) | > 100 µM (inactive) | > 100 µM (inactive) | > 100 µM (inactive) | > 100 µM (inactive) | > 100 µM (inactive)
Cn1c2ccccc2c(=NNc2ccc(C(=O)O)cc2)c2ccccc21 | 30.1 µM (inactive) | 16.9 µM (inactive) | 17.3 µM (inactive) | 18.7 µM (inactive) | 10.4 µM (inactive) | 15.2 µM (inactive) | 19.2 µM (inactive) | 18.1 µM (inactive) | 13.4 µM (inactive) | 21.1 µM (inactive) | 20.1 µM (inactive) | 12.9 µM (inactive) | 19.8 µM (inactive) | 15.1 µM (inactive) | 21.8 µM (inactive) | 10.7 µM (inactive) | 18.5 µM (inactive) | 15.7 µM (inactive) | 15.4 µM (inactive) | 16.1 µM (inactive)
CCOC(=O)c1sc2c(c1OC(=O)c1ccc(Cl)cc1Cl)c(=O)n(-c1ccccc1)c(=S)n2-c1ccccc1 | 35.3 µM (inactive) | 29.4 µM (inactive) | 5.42 µM (inactive) | 7.48 µM (inactive) | 24.5 µM (inactive) | 3.27 µM (inactive) | 25.9 µM (inactive) | 4.22 µM (inactive) | > 35.5 µM (inactive) | 4.91 µM (inactive) | 4.06 µM (inactive) | 4.58 µM (inactive) | 20.9 µM (inactive) | 13.4 µM (inactive) | > 24 µM (inactive) | 4.74 µM (inactive) | 20 µM (inactive) | 5.73 µM (inactive) | > 100 µM (inactive) | 9.64 µM (inactive)
CN1CCN(c2ccc3[nH]c(-c4ccc5[nH]c(CCCc6ccc(N(CCCl)CCCl)cc6)nc5c4)nc3c2)CC1 | > 100 µM (inactive) | > 100 µM (inactive) | > 100 µM (inactive) | 2.09 µM (inactive) | 64.3 µM (inactive) | 75.3 µM (inactive) | > 100 µM (inactive) | > 100 µM (inactive) | > 100 µM (inactive) | > 100 µM (inactive) | 13.5 µM (inactive) | > 100 µM (inactive) | > 100 µM (inactive) | > 100 µM (inactive) | > 100 µM (inactive) | > 100 µM (inactive) | 84.5 µM (inactive) | > 100 µM (inactive) | > 100 µM (inactive) | > 100 µM (inactive)
